Laboratory results as given in patent publication US20030013764A1, “Use for a pyruvate dehydrogenase activator for the treatment of ischaemia in limbs” (priority 1995, published 2003).

Legend:
gracilis muscle = assay: Muscle metabolites in gracilis muscle biopsies of anaesthetised dogs; type: in vivo, Beagle dogs; parameters: Lactate / Ac.carn. (acetyl carnitine) / Free carnitine: unit not given here; conditions: for Ac.carn. (acetyl carnitine) / Free carnitine / Lactate / PCr (phosphocreatine): DCA treated
Procedure: Animals were divided into DCA treated and vehicle (isotonic saline) treated groups. DCA or vehicle was given after completion of the surgery by a constant infusion. 45 minutes later the contraction was started. Muscle fatigue was measured in both normal and flow limited muscles. Arterial blood samples were taken from the brachial artery and venous blood samples were taken from each gracilis muscle at rest, during contraction and following recovery. The contraction period was 20 minutes of stimulation of 3 Hz. Blood samples (0.4 ml) being taken for blood gas analysis and analysed immediately. Parameters recorded were pH, pCO2. pO2. oxygen saturation and total Haemoglobin. Further samples (1.0 ml) were taken for analysis of lactate, glucose and non esterified fatty acid (NEFA) concentration.
Following resting blood samples and after drug/vehicle infusion a resting muscle biopsy (6 mm diameter Bergstrom needle. Stille, Sweden and 6 mm diameter Allendale needle, Edinburgh, Scotland), was taken from each muscle. After 20 minutes of stimulation the muscle was then freeze clamped, while still being stimulated, and a thin portion of muscle was excised and frozen in liquid nitrogen (The whole process took less than 6 seconds with the top layer of muscle being frozen within 1 second). The muscle samples were then stored in liquid nitrogen before a portion was freeze dried and analysed.
The muscle sample was divided into two portions, one for analysis of ATP, phosphocreatine (PCr), creatine (Cr) and intramuscular lactate (Harris. R et al., Scand. Journal Clin Lab Invest.. 33,109-120, 1974). The other portion of muscle was stored wet in liquid nitrogen. Briefly, the first portion of muscle was freeze dried, dissected free of visible connective tissue and blood and then powdered and was extracted in ice cold perchloric acid (0.5M) and neutralised with potassium bicarbonate (2.2M). Glycogen content was assayed using the method described by Harris et al. 1974 (see above).
Acetylcarnitine, free carnitine were assessed, in the freeze dried extract, by the method described by Cederblad et al; Anal. Biochem., 185, (1990), 274-278. PDH activity (rest & exercise, active and total) from a sample of wet tissue using the method of Constantin-Teodosiu D et al.. “A sensitive radioisotopic assay of pyruvate dehydrogenase complex in human muscle tissue”. Anal. Biochem.. Volume 198, p347-351. 1991. This method is also described by Dumitru Constantin-Teodosiu. Doctoral Thesis “Regulation of pyruvate dehydrgenase complex activity and acetyl group formation in skeletal muscle during exercise”. Stockholm 1992. from the Department of Clinical Chemistry, Karolinska Institute. Huddinge University Hospital. S-141 86 Huddinge Sweden.

[1] = test system: contracting skeletal muscle of anaesthetised dogs; assay: Muscle fatigue in contracting gracilis muscle of anaesthetised dogs; type: in vivo, Beagle dogs; conditions: following treatment with DCA (300 mg.kg−1 as sodium salt, infusion 45 min before contraction); 20 min stimulation at 3 Hz; fatigue=(peak tension—end tension)/peak tension
Procedure: The invention will now be further described by reference to the accompanying, non-limiting, experimental methods. In the following expermimental methods we have used the PDH kinase inhibitor dichloroacetate to determine if inhibitors of PDH kinase can reduce the rate of fatigue in contracting skeletal muscle of anaesthetised dogs which has blood flow limited to the same extent as patients with intermittent claudication. Suitable doses of DCA include these in the range 30 to 300 mg.kg^−1. In the experimental methods which follow DCA was administered (at a dose of 300 mg.kg^−1) as the sodium salt of dichloroacetic acid.
Female Alderley Park Beagle dogs (12-18 kg) were pre-medicated with morphine (10 mg, i.m.) 30 minutes prior to induction of anaesthesia with sodium pentobarbitone (45 mg kg-1 i.v., Sagatal.). […] Rectal temperature was constantly monitored and maintained (range 36.2° C.-38.6° C.) with a homeothermic heating blanket (Harvard Instruments, Edenbridge. Kent. UK).
The left external jugular vein was cannulated for continuous administration of anaesthetic (sodium pentobarbitone 12 mg/ml at a rate of5 -6 ml/hour) using an infusion pump (injectomat S. Fresenius. Villiers. France). […] All pressures were measured using strain gauge manometers (PDCR 75. Druck Ltd. Barendeecht. Netherlands) attached to d.c. bridle amplifiers (Lectromed. MT8P. St. Peter. Jersey). […]

volunteers = conditions: cited from earlier work
normal mice = conditions: cited from earlier work
angina patients = conditions: cited from earlier work
[2] = test system: patients with class III heart failure; conditions: human, in vivo; cited from earlier work
[3] = Normal flow muscle after 20 min stimulation
[4] = Resricted flow muscle after 20 min stimulation
[5] = angina patients undergoing catheterisation

O=C(O)C(Cl)Cl [DCA, dichloroacetic acid]
Changes in Pcr (gracilis muscle; DCA treated versus control): reduced
Changes in lactate (gracilis muscle; DCA treated versus control): reduced
Ac.carn. (acetyl carnitine) (gracilis muscle; [3]): 9.6 ± 3.2
Free carnitine (gracilis muscle; [3]): 15.5 ± 2.5
Lactate (gracilis muscle; [3]): 5.4 ± 1.6
PCr (phosphocreatine) (gracilis muscle; [3]): 44.7 ± 3.2
Ac.carn. (acetyl carnitine) (gracilis muscle; [4]): 16.9 ± 2.6
Free carnitine (gracilis muscle; [4]): 9.6 ± 2.2
Lactate (gracilis muscle; [4]): 18.1 ± 4.0
PCr (phosphocreatine) (gracilis muscle; [4]): 38.9 ± 3.0
Ac.carn. (acetyl carnitine) (gracilis muscle; Resting muscle): 19.6 ± 1.0
Free carnitine (gracilis muscle; Resting muscle): 5.4 ± 1.6
Lactate (gracilis muscle; Resting muscle): 5.7 ± 1.4
PCr (phosphocreatine) (gracilis muscle; Resting muscle): 55.1 ± 2.5
Acetyl group availability (gracilis muscle; at rest and during contraction (RF muscle), DCA treated group versus control): higher
muscle fatigue [1]: 25.0%
reduction of lactate production (volunteers; volunteers during maximal and 50% maximal workload): up to 30%
increase in maximal work capacity (volunteers; volunteers): 10%
increase in treadmill exercise duration (normal mice): 20%
oxidation of lactate (normal mice): increased
changes in heart rate or left ventricular inotropic state (LV dp/dtmax.) (angina patients; [5]): absence of changes
increase in stroke volume (angina patients; [5]): 13%
Myocardial efficiency (angina patients; angina patients, increased from 24%): 32%
effects in patients with class III heart failure [2]: Beneficial effects
